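Exposure lasted 48 hours, with cells grown in 96-well plates and compounds tested at five concentrations. GI50 = concentration required for 50% inhibition of growth. TGI: concentration producing complete growth inhibition.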
Experiments:
Experiment in all cases: NCI tumour cell line growth inhibition, 48 h
NCI-H522 lung = test system: NCI-H522 lung
KM12 colon = test system: KM12 colon
HCT-116 colon = test system: HCT-116 colon
CAKI-1 renal = test system: CAKI-1 renal
SK-MEL-28 melanoma = test system: SK-MEL-28 melanoma
UO-31 renal = test system: UO-31 renal
SNB-75 CNS = test system: SNB-75 CNS
LOX IMVI melanoma = test system: LOX IMVI melanoma
NCI-H460 lung = test system: NCI-H460 lung
NCI/ADR-RES ovarian = test system: NCI/ADR-RES ovarian
OVCAR-4 ovarian = test system: OVCAR-4 ovarian
OVCAR-5 ovarian = test system: OVCAR-5 ovarian
RXF 393 renal = test system: RXF 393 renal
ACHN renal = test system: ACHN renal
786-0 renal = test system: 786-0 renal
SF-268 CNS = test system: SF-268 CNS
NCI-H226 lung = test system: NCI-H226 lung
COLO 205 colon = test system: COLO 205 colon
OVCAR-3 ovarian = test system: OVCAR-3 ovarian
HCT-15 colon = test system: HCT-15 colon
TK-10 renal = test system: TK-10 renal
EKVX NSCLC = test system: EKVX NSCLC
SK-MEL-2 melanoma = test system: SK-MEL-2 melanoma
MOLT-4 leukemia = test system: MOLT-4 leukemia
SNB-19 CNS = test system: SNB-19 CNS
UACC-257 melanoma = test system: UACC-257 melanoma
HCC-2998 colon = test system: HCC-2998 colon
BT-549 breast = test system: BT-549 breast
PC-3 prostate = test system: PC-3 prostate
NCI-H23 lung = test system: NCI-H23 lung
A549 NSCLC = test system: A549 NSCLC
HS 578T breast = test system: HS 578T breast
M14 melanoma = test system: M14 melanoma
RPMI-8226 leukemia = test system: RPMI-8226 leukemia
SK-MEL-5 melanoma = test system: SK-MEL-5 melanoma
U251 CNS = test system: U251 CNS
UACC-62 melanoma = test system: UACC-62 melanoma
IGROV1 ovarian = test system: IGROV1 ovarian
SK-OV-3 ovarian = test system: SK-OV-3 ovarian
OVCAR-8 ovarian = test system: OVCAR-8 ovarian
DU-145 prostate = test system: DU-145 prostate
A498 renal = test system: A498 renal
MALME-3M melanoma = test system: MALME-3M melanoma
HL-60(TB) leukemia = test system: HL-60(TB) leukemia
MDA-MB-435 = test system: MDA-MB-435
T-47D breast = test system: T-47D breast
SN12C renal = test system: SN12C renal
K-562 leukemia = test system: K-562 leukemia
MDA-MB-231 breast = test system: MDA-MB-231 breast
SF-295 CNS = test system: SF-295 CNS
HOP-62 NSCLC = test system: HOP-62 NSCLC
SW-620 colon = test system: SW-620 colon
MCF7 breast = test system: MCF7 breast
HOP-92 NSCLC = test system: HOP-92 NSCLC
SR leukemia = test system: SR leukemia
CCRF-CEM leukemia = test system: CCRF-CEM leukemia

Work on `CCOC(=O)C#Cc1c(C(=O)OCC)nnn1Cc1ccc(C(F)(F)F)cc1` yielded a GI50 (NCI-H522 lung) of 2.4 µM, a TGI (NCI-H522 lung) of 4.47 µM and a GI50 (KM12 colon) of 11.8 µM. The TGI (KM12 colon) was 25.5 µM, the GI50 (HCT-116 colon) was 1.8 µM and the TGI (HCT-116 colon) was 3.5 µM. For the same molecule, the GI50 (CAKI-1 renal) was 2.09 µM, the TGI (CAKI-1 renal) was 4.58 µM and the GI50 (SK-MEL-28 melanoma) was 2.47 µM. For the same molecule, the TGI (SK-MEL-28 melanoma) was 5.91 µM, the GI50 (UO-31 renal) was 1.8 µM and the TGI (UO-31 renal) was 3.47 µM. It also gave a GI50 (SNB-75 CNS) of 9.31 µM, a TGI (SNB-75 CNS) of 21.4 µM and a GI50 (LOX IMVI melanoma) of 0.692 µM. It also gave a TGI (LOX IMVI melanoma) of 2.09 µM, a GI50 (NCI-H460 lung) of 11.5 µM and a TGI (NCI-H460 lung) of 27.1 µM. The GI50 (NCI/ADR-RES ovarian) was 7.49 µM, the TGI (NCI/ADR-RES ovarian) was 40.7 µM and the GI50 (OVCAR-4 ovarian) was 3.22 µM. For the same molecule, the TGI (OVCAR-4 ovarian) was 11.7 µM, the GI50 (OVCAR-5 ovarian) was 9.75 µM and the TGI (OVCAR-5 ovarian) was 22 µM. For the same molecule, the GI50 (RXF 393 renal) was 1.68 µM, the TGI (RXF 393 renal) was 3.24 µM and the GI50 (ACHN renal) was 1.92 µM. The TGI (ACHN renal) was 3.56 µM, the GI50 (786-0 renal) was 2.58 µM and the TGI (786-0 renal) was 6.29 µM. It also gave a GI50 (SF-268 CNS) of 8.12 µM, a TGI (SF-268 CNS) of 25.7 µM and a GI50 (NCI-H226 lung) of 1.72 µM. It also gave a TGI (NCI-H226 lung) of 3.63 µM, a GI50 (COLO 205 colon) of 2.32 µM and a TGI (COLO 205 colon) of 5.29 µM. For the same molecule, the GI50 (OVCAR-3 ovarian) was 1.73 µM, the TGI (OVCAR-3 ovarian) was 3.32 µM and the GI50 (HCT-15 colon) was 1.95 µM. The TGI (HCT-15 colon) was 4.46 µM, the GI50 (TK-10 renal) was 2.08 µM and the TGI (TK-10 renal) was 4.55 µM. For the same molecule, the GI50 (EKVX NSCLC) was 16.6 µM, the TGI (EKVX NSCLC) was 31.2 µM and the GI50 (SK-MEL-2 melanoma) was 15.1 µM. The TGI (SK-MEL-2 melanoma) was 28.7 µM, the GI50 (MOLT-4 leukemia) was 1.73 µM and the TGI (MOLT-4 leukemia) was 6.85 µM. For the same molecule, the GI50 (SNB-19 CNS) was 19.4 µM, the TGI (SNB-19 CNS) was 44.8 µM and the GI50 (UACC-257 melanoma) was 3.69 µM. The TGI (UACC-257 melanoma) was 11 µM, the GI50 (HCC-2998 colon) was 18.1 µM and the TGI (HCC-2998 colon) was 32.7 µM. For the same molecule, the GI50 (BT-549 breast) was 2.93 µM, the TGI (BT-549 breast) was 8.65 µM and the GI50 (PC-3 prostate) was 9.38 µM. It also gave a TGI (PC-3 prostate) of 22 µM, a GI50 (NCI-H23 lung) of 11.5 µM and a TGI (NCI-H23 lung) of 27.6 µM. The GI50 (A549 NSCLC) was 20.6 µM, the TGI (A549 NSCLC) was 39.2 µM and the GI50 (HS 578T breast) was 22.5 µM. The TGI (HS 578T breast) was 59.5 µM, the GI50 (M14 melanoma) was 2.46 µM and the TGI (M14 melanoma) was 5.82 µM. The GI50 (RPMI-8226 leukemia) was 2.53 µM, the TGI (RPMI-8226 leukemia) was 7.21 µM and the GI50 (SK-MEL-5 melanoma) was 9.92 µM. The TGI (SK-MEL-5 melanoma) was 21.5 µM, the GI50 (U251 CNS) was 10.9 µM and the TGI (U251 CNS) was 22.8 µM. For the same molecule, the GI50 (UACC-62 melanoma) was 1.93 µM, the TGI (UACC-62 melanoma) was 4.36 µM and the GI50 (IGROV1 ovarian) was 14.2 µM. It also gave a TGI (IGROV1 ovarian) of 30.8 µM, a GI50 (SK-OV-3 ovarian) of 19.4 µM and a TGI (SK-OV-3 ovarian) of 38.6 µM. The GI50 (OVCAR-8 ovarian) was 4.37 µM, the TGI (OVCAR-8 ovarian) was 15 µM and the GI50 (DU-145 prostate) was 3.9 µM. It also gave a TGI (DU-145 prostate) of 15.1 µM, a GI50 (A498 renal) of 16.9 µM and a TGI (A498 renal) of 30.6 µM. For the same molecule, the GI50 (MALME-3M melanoma) was 2.08 µM, the TGI (MALME-3M melanoma) was 4.9 µM and the GI50 (HL-60(TB) leukemia) was 1.3 µM. The TGI (HL-60(TB) leukemia) was 3.85 µM, the GI50 (MDA-MB-435) was 3.72 µM and the TGI (MDA-MB-435) was 14.5 µM. For the same molecule, the GI50 (T-47D breast) was 2.08 µM, the TGI (T-47D breast) was 5.66 µM and the GI50 (SN12C renal) was 2.42 µM. It also gave a TGI (SN12C renal) of 6.08 µM, a GI50 (K-562 leukemia) of 1.77 µM and a TGI (K-562 leukemia) of 8.3 µM. The GI50 (MDA-MB-231 breast) was 4.05 µM, the TGI (MDA-MB-231 breast) was 14 µM and the GI50 (SF-295 CNS) was 17.5 µM. It also gave a TGI (SF-295 CNS) of 32.9 µM, a GI50 (HOP-62 NSCLC) of 17 µM and a TGI (HOP-62 NSCLC) of 32 µM. For the same molecule, the GI50 (SW-620 colon) was 2.08 µM, the TGI (SW-620 colon) was 4.36 µM and the GI50 (MCF7 breast) was 2.52 µM. It also gave a TGI (MCF7 breast) of 10.1 µM, a GI50 (HOP-92 NSCLC) of 2.53 µM and a TGI (HOP-92 NSCLC) of 5.7 µM. It also gave a GI50 (SR leukemia) of 1.06 µM, a TGI (SR leukemia) of 4.48 µM and a GI50 (CCRF-CEM leukemia) of 1.07 µM. It also gave a TGI (CCRF-CEM leukemia) of 4.92 µM.

— PubChem BioAssay (NCI)
